Results as given in ChEMBL document CHEMBL4507262, “Data for DCP probe A-1596586” (2021).

Experiments:
[1] = biological target: Serine/threonine-protein kinase RIO3 (Homo sapiens) (UniProt O14730); settings: Compound concentration 1000.0 nM
[2] = biological target: Serine/threonine-protein kinase DCLK1 (Homo sapiens) (UniProt O15075); settings: Compound concentration 1000.0 nM
[3] = biological target: T1, Muscarinic acetylcholine receptor M5 (Homo sapiens) (UniProt P08912); experiment: M5 (h) Eurofins-Cerep binding assay; design: ligand concentration 0.3 nM; settings: filed as antagonist, Compound concentration 10.0 uM
T1 sequence (whole entry): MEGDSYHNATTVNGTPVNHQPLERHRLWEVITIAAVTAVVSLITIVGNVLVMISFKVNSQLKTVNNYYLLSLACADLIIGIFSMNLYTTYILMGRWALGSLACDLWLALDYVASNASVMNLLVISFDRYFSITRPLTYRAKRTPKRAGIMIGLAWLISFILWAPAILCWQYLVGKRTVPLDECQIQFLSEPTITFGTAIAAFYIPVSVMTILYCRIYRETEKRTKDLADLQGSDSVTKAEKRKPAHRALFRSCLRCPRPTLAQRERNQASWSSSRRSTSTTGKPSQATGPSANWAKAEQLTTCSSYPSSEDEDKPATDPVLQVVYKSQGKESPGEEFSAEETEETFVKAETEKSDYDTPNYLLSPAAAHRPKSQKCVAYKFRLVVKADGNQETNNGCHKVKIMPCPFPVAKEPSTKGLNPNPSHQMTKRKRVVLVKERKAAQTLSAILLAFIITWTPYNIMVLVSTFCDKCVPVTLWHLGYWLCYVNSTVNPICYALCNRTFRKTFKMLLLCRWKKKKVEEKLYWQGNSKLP

[4] = biological target: Serine/threonine-protein kinase Nek5 (Homo sapiens) (UniProt Q6P3R8); settings: Compound concentration 1000.0 nM
Sequence of Serine/threonine-protein kinase Nek5 (Homo sapiens) (Q6P3R8 whole entry): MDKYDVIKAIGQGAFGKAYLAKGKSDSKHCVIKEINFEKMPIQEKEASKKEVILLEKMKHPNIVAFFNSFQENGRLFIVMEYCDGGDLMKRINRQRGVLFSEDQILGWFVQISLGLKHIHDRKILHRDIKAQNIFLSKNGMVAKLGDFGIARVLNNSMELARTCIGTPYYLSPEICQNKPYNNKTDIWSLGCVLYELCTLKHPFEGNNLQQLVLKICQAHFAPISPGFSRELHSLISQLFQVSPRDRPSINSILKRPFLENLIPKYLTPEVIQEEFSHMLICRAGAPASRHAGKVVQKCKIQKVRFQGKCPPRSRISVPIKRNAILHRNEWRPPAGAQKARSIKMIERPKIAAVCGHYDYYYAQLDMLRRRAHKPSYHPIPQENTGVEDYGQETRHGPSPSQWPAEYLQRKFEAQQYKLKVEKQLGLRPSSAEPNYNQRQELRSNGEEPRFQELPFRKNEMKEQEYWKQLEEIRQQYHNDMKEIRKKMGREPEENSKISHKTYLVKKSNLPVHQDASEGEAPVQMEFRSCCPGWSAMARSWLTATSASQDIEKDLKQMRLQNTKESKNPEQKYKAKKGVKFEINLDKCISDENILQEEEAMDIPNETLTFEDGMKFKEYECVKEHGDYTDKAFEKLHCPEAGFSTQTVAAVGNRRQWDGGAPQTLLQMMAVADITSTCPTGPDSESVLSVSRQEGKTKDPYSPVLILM

[5] = biological target: NUAK family SNF1-like kinase 2 (Homo sapiens) (UniProt Q9H093); settings: Compound concentration 1000.0 nM
Sequence of NUAK family SNF1-like kinase 2 (Homo sapiens) (Q9H093 whole entry): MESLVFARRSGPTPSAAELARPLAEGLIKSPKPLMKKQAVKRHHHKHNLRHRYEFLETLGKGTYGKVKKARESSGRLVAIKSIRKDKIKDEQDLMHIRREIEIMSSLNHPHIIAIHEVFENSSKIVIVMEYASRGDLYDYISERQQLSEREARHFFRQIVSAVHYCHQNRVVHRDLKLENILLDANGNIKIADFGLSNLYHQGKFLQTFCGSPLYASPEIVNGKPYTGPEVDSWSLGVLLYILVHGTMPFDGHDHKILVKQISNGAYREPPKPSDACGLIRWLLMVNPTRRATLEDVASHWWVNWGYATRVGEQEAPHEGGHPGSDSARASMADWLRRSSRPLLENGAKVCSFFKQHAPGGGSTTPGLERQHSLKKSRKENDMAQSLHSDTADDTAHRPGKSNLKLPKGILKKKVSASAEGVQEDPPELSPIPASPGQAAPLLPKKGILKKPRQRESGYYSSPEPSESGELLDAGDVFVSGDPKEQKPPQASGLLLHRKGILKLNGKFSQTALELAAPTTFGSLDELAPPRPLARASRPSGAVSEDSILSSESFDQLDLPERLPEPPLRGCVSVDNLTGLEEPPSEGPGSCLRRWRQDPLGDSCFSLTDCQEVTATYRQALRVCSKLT

[6] = biological target: Serine/threonine-protein kinase 38 (Homo sapiens) (UniProt Q15208); settings: Compound concentration 1000.0 nM
[7] = biological target: Calcium/calmodulin-dependent protein kinase type IV (Homo sapiens) (UniProt Q16566); settings: Compound concentration 1000.0 nM
[8] = biological target: Serine/threonine-protein kinase 25 (Homo sapiens) (UniProt O00506); settings: Compound concentration 1000.0 nM
[9] = biological target: Proto-oncogene tyrosine-protein kinase receptor Ret (Homo sapiens) (UniProt P07949); settings: Compound concentration 1000.0 nM
[10] = biological target: Tyrosine-protein kinase ABL1 (Homo sapiens) (UniProt P00519); settings: Compound concentration 1000.0 nM
[11] = biological target: Testis-specific serine/threonine-protein kinase 1 (Homo sapiens) (UniProt Q9BXA7); settings: Compound concentration 1000.0 nM
[12] = biological target: Serine/threonine-protein kinase ULK1 (Homo sapiens) (UniProt O75385); settings: Compound concentration 1000.0 nM
Sequence of Serine/threonine-protein kinase ULK1 (Homo sapiens) (O75385 whole entry): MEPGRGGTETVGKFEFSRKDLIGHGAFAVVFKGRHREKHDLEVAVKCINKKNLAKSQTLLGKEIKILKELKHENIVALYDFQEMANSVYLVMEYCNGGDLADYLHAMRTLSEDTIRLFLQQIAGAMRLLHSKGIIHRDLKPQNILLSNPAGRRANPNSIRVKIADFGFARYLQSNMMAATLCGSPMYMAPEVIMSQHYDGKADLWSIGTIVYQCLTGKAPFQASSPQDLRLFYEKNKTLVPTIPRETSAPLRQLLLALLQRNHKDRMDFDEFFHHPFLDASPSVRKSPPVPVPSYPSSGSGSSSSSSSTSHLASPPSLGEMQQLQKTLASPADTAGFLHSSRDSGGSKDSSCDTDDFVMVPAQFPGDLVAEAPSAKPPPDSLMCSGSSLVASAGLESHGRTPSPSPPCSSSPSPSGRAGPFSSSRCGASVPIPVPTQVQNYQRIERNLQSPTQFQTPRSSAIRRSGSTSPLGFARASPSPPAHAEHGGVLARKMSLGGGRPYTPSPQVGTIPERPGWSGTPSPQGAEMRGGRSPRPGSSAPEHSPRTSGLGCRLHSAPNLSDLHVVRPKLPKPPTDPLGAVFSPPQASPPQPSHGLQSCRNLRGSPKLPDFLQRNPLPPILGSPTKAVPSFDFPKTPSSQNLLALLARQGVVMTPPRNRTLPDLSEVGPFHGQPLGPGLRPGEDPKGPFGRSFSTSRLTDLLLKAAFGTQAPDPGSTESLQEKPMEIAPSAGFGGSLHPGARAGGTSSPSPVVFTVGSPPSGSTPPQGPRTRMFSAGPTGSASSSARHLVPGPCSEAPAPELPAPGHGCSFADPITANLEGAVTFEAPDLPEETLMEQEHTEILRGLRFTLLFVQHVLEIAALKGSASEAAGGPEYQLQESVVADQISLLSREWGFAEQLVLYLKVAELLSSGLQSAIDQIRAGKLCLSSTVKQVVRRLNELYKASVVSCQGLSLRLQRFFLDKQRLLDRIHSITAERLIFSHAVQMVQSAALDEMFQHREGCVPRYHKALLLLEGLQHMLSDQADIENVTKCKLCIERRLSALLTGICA

[13] = biological target: Serine/threonine-protein kinase RIO1 (Homo sapiens) (UniProt Q9BRS2); settings: Compound concentration 1000.0 nM
Sequence of Serine/threonine-protein kinase RIO1 (Homo sapiens) (Q9BRS2 whole entry): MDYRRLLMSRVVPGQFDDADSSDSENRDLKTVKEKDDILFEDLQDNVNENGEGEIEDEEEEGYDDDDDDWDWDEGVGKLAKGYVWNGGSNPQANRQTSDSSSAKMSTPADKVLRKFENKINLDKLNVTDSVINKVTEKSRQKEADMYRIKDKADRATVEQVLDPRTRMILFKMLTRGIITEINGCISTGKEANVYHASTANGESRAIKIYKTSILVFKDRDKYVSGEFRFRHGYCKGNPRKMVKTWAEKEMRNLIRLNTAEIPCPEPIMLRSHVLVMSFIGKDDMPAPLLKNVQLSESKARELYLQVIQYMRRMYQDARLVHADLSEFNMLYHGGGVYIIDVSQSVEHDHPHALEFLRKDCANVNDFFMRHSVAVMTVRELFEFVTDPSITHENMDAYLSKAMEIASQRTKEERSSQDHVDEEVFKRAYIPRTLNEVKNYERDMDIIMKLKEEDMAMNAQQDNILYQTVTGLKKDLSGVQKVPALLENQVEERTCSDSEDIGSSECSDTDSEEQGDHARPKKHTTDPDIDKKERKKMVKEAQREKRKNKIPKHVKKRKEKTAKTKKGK

[14] = biological target: T2, 5-hydroxytryptamine receptor 2C (Homo sapiens) (UniProt P28335); experiment: 5-HT2C (h) Eurofins-Cerep binding assay; design: ligand concentration 1 nM; settings: filed as antagonist, Compound concentration 10.0 uM
T2 sequence (whole entry): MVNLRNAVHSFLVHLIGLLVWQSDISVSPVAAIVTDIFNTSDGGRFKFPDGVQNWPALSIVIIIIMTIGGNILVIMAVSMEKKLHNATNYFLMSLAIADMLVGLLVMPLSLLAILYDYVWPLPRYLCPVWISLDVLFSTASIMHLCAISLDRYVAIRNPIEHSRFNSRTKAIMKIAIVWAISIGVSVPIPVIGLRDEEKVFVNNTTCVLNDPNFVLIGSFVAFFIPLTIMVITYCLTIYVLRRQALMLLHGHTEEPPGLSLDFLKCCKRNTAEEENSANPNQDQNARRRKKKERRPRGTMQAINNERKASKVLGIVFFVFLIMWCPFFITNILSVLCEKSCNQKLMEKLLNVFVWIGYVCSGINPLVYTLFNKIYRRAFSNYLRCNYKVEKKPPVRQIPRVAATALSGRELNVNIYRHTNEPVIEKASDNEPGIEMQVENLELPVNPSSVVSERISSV

[15] = biological target: Bone morphogenetic protein receptor type-2 (Homo sapiens) (UniProt Q13873); settings: Compound concentration 1000.0 nM
[16] = biological target: Dual specificity mitogen-activated protein kinase kinase 5 (Homo sapiens) (UniProt Q13163); settings: Compound concentration 1000.0 nM
[17] = biological target: Testis-specific serine/threonine-protein kinase 3 (Homo sapiens) (UniProt Q96PN8); settings: Compound concentration 1000.0 nM
[18] = biological target: Atypical kinase COQ8A, mitochondrial (Homo sapiens) (UniProt Q8NI60); settings: Compound concentration 1000.0 nM
Sequence of Atypical kinase COQ8A, mitochondrial (Homo sapiens) (Q8NI60 163-647 limits assumed): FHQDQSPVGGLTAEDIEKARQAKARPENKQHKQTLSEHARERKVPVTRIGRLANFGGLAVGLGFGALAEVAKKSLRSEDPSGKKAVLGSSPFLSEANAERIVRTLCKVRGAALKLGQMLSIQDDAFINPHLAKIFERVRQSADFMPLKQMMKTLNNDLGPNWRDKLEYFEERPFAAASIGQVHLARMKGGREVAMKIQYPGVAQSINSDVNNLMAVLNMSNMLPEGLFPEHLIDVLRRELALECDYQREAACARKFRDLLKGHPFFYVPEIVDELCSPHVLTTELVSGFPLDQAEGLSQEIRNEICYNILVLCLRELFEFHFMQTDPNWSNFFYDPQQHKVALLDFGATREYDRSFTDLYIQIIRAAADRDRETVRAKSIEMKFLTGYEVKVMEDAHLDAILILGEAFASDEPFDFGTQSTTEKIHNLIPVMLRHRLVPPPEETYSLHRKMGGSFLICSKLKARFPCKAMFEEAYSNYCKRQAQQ

[19] = biological target: Focal adhesion kinase 1 (Homo sapiens) (UniProt Q05397); settings: Compound concentration 1000.0 nM
[20] = system: Tyrosine-protein kinase ABL1 (Homo sapiens), P00519 [H396P]; settings: Compound concentration 1000.0 nM
[21] = biological target: Ephrin type-A receptor 1 (Homo sapiens) (UniProt P21709); settings: Compound concentration 1000.0 nM
[22] = biological target: Alpha-2C adrenergic receptor (Homo sapiens) (UniProt P18825); settings: Compound concentration 10.0 uM
[23] = biological target: Mitogen-activated protein kinase kinase kinase kinase 2 (Homo sapiens) (UniProt Q12851); settings: Compound concentration 1000.0 nM
[24] = biological target: Serine/threonine-protein kinase Chk1 (Homo sapiens) (UniProt O14757); settings: Compound concentration 1000.0 nM
Sequence of Serine/threonine-protein kinase Chk1 (Homo sapiens) (O14757 whole entry): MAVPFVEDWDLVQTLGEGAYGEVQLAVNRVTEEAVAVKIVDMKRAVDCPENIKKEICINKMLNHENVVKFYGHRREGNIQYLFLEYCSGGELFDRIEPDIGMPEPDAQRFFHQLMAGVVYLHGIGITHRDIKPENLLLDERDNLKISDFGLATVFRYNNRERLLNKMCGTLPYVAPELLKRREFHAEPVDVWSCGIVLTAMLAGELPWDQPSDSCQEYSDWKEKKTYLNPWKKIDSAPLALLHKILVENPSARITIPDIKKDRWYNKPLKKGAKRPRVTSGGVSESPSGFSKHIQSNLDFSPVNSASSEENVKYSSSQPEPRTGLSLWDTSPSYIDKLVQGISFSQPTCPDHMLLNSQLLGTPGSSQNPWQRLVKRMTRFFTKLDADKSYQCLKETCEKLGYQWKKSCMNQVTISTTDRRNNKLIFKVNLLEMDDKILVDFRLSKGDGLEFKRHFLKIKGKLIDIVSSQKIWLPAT

[25] = biological target: Serine/threonine-protein kinase MRCK beta (Homo sapiens) (UniProt Q9Y5S2); settings: Compound concentration 1000.0 nM
[26] = biological target: Serine/threonine-protein kinase 16 (Homo sapiens) (UniProt O75716); settings: Compound concentration 1000.0 nM
[27] = biological target: Vascular endothelial growth factor receptor 2 (Homo sapiens) (UniProt P35968); settings: Compound concentration 1000.0 nM
[28] = biological target: Serine/threonine-protein kinase ULK2 (Homo sapiens) (UniProt Q8IYT8); settings: Compound concentration 1000.0 nM
[29] = biological target: Cyclin-dependent kinase 7 (Homo sapiens) (UniProt P50613); settings: Compound concentration 1000.0 nM
Sequence of Cyclin-dependent kinase 7 (Homo sapiens) (P50613 whole entry): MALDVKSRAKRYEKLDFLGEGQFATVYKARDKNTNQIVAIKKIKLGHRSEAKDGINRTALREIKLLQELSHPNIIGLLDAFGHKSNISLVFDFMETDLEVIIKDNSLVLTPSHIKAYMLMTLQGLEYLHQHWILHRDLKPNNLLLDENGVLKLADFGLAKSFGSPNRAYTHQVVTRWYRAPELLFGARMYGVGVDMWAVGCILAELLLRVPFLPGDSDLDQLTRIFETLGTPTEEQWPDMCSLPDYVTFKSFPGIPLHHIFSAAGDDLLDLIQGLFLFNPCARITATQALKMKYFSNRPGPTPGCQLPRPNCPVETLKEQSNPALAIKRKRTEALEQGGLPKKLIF

[30] = system: Tyrosine-protein kinase ABL1 (Homo sapiens), P00519 [F317I]; settings: Compound concentration 1000.0 nM
[31] = biological target: Cyclin-dependent kinase 15 (Homo sapiens) (UniProt Q96Q40); settings: Compound concentration 1000.0 nM
[32] = biological target: Prostaglandin G/H synthase 2 (Homo sapiens) (UniProt P35354); experiment: COX2(h) Eurofins-Cerep enzyme and uptake assay; settings: Compound concentration 10.0 uM
Sequence of Prostaglandin G/H synthase 2 (Homo sapiens) (P35354 whole entry): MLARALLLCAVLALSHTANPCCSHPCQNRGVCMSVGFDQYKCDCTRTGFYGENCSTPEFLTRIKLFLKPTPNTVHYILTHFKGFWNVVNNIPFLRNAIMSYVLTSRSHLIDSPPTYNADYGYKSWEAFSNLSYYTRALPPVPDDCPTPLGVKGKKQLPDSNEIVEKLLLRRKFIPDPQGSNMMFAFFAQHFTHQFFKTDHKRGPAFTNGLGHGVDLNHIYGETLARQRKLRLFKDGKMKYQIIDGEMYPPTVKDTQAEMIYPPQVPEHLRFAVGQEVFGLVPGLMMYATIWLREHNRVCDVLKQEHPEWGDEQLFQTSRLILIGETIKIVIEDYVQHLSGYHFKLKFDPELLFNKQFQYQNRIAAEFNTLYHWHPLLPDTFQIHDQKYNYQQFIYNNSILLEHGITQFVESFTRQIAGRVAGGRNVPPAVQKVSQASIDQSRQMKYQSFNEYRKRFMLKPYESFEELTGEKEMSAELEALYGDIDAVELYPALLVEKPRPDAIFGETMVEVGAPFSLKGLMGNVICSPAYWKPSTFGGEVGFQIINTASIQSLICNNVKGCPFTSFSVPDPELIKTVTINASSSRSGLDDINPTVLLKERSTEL

Compound | residual activity [1] | residual activity [2] | % Inhibition of Control Specific Binding (Mean n=2) [3] | residual activity [4] | residual activity [5] | residual activity [6] | residual activity [7] | residual activity [8] | residual activity [9] | residual activity [10] | residual activity [11] | residual activity [12] | residual activity [13] | % Inhibition of Control Specific Binding (Mean n=2) [14] | residual activity [15] | residual activity [16] | residual activity [17] | residual activity [18] | residual activity [19] | residual activity [20] | other results
COc1ccc2c(c1)O[C@H](c1ccc(OC)c(OC)c1)C[C@@H]2NC(=O)C1(c2ccc3c(c2)OC(F)(F)O3)CC1 [A-1596584] | 100% | 100% | -0.7% | 100% | 100% | 100% | 100% | 100% | 100% | 100% | 100% | 88% | 100% | 1.2% | 92% | 76% | 100% | 100% | 100% | 98% | residual activity [21]: 88%; inhibition [22]: 10.1%; residual activity [23]: 99%; residual activity [24]: 100%; residual activity [25]: 100%; residual activity [26]: 100%; residual activity [27]: 88%; residual activity [28]: 100%; residual activity [29]: 85%; residual activity [30]: 100%; residual activity [31]: 100%; % Inhibition of Control Values (Mean n=2) [32]: -17.9%
COc1ccc2c(c1)O[C@@H](c1ccc(OC)c(OC)c1)C[C@H]2NC(=O)C1(c2ccc3c(c2)OC(F)(F)O3)CC1 [A-1596586] | 100% | 82% | 35.7% | 71% | 76% | 91% | 89% | 100% | 99% | 86% | 100% | 75% | 100% | 6.4% | 68% | 67% | 57% | 87% | 94% | 86% | residual activity [21]: 93%; inhibition [22]: 15.8%; residual activity [23]: 87%; residual activity [24]: 100%; residual activity [25]: 100%; residual activity [26]: 81%; residual activity [27]: 80%; residual activity [28]: 77%; residual activity [29]: 80%; residual activity [30]: 78%; residual activity [31]: 100%; % Inhibition of Control Values (Mean n=2) [32]: -9.3%
